Tested on: 379773-124-R-J2-PDC spheroid viability
Experiment: Anticancer human tumor 379773-124-R-J2-PDC patient-derived endometrial carcinoma cell line growth inhibition [POLQ]
Settings: spheroids with HUVEC and MSC; for IC50: curve of first compound; for viability, T/C: stronger effect = lower value
Method in brief: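 Complex spheroid viability model combining PDC tumour cells with endothelial (HUVEC) and MSC stromal cells. Novobiocin, ART-558 or RP6685 were tested singly and in combination with standard and investigational anticancer drugs. Each was titrated in half-log steps from near clinical Cmax, or from 10 microM where Cmax was unknown.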

[1] = second compound 0.0316 µM, first compound 0.0316 µM
[2] = second compound 0.0316 µM, first compound 0.1 µM
[3] = second compound 0.0316 µM, first compound 0.316 µM
[4] = second compound 0.0316 µM, first compound 1 µM
[5] = second compound 0.0316 µM, first compound 3.16 µM
[6] = second compound 0.0316 µM, first compound 10 µM
[7] = second compound 0.1 µM, first compound 0.0316 µM
[8] = second compound 0.1 µM, first compound 0.1 µM
[9] = second compound 0.1 µM, first compound 0.316 µM
[10] = second compound 0.1 µM, first compound 1 µM
[11] = second compound 0.1 µM, first compound 3.16 µM
[12] = second compound 0.1 µM, first compound 10 µM
[13] = second compound 0.316 µM, first compound 0.0316 µM
[14] = second compound 0.316 µM, first compound 0.1 µM
[15] = second compound 0.316 µM, first compound 0.316 µM
[16] = second compound 0.316 µM, first compound 1 µM
[17] = second compound 0.316 µM, first compound 3.16 µM
[18] = second compound 0.316 µM, first compound 10 µM
[19] = second compound 1 µM, first compound 0.0316 µM
[20] = second compound 1 µM, first compound 0.1 µM
[21] = second compound 1 µM, first compound 0.316 µM
[22] = second compound 1 µM, first compound 1 µM
[23] = second compound 1 µM, first compound 3.16 µM
[24] = second compound 1 µM, first compound 10 µM
[25] = second compound 3.16 µM, first compound 0.0316 µM
[26] = second compound 3.16 µM, first compound 0.1 µM
[27] = second compound 3.16 µM, first compound 0.316 µM
[28] = second compound 3.16 µM, first compound 1 µM
[29] = second compound 3.16 µM, first compound 3.16 µM
[30] = second compound 3.16 µM, first compound 10 µM
[31] = second compound 10 µM, first compound 0.0316 µM
[32] = second compound 10 µM, first compound 0.1 µM
[33] = second compound 10 µM, first compound 0.316 µM
[34] = second compound 10 µM, first compound 1 µM
[35] = second compound 10 µM, first compound 3.16 µM
[36] = second compound 10 µM, first compound 10 µM
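Note: spheroids exposed to drugs for seven days before readout.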
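Throughout, for viability, T/C: percent viability relative to DMSO vehicle control taken as 100%.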

Question: With `COc1cc(C2c3cc4c(cc3C(OC3OC5COC(C)OC5C(O)C3O)C3COC(=O)C23)OCO4)cc(OC)c1O` (stereo unspecified) + COC1C(OC(N)=O)C(O)C(Oc2ccc3c(O)c(NC(=O)c4ccc(O)c(CC=C(C)C)c4)c(=O)oc3c2C)OC1(C)C as the compound, how does the IC50 (second compound 0.0316 µM) read?
Answer: 1190 nM

Question: What about the IC50 (second compound 0.1 µM) of the same compound?
Answer: 1510 nM

Question: What about the IC50 (second compound 0.316 µM) of the same compound?
Answer: 1490 nM

Question: What about the IC50 (second compound 1 µM) of the same compound?
Answer: 1370 nM

Question: And the IC50 (second compound 3.16 µM)?
Answer: 1370 nM

Question: What about the IC50 (second compound 10 µM) of the same compound?
Answer: 1190 nM

Question: And the viability, T/C [1]?
Answer: 97.5%

Question: And the viability, T/C [2]?
Answer: 82.6%

Question: And the viability, T/C [3]?
Answer: 86.2%

Question: And the viability, T/C [4]?
Answer: 56.9%

Question: What about the viability, T/C [5] of the same compound?
Answer: 13.8%

Question: What about the viability, T/C [6] of the same compound?
Answer: 9.47%

Question: And the viability, T/C [7]?
Answer: 95.5%

Question: And the viability, T/C [8]?
Answer: 80.6%

Question: What about the viability, T/C [9] of the same compound?
Answer: 80%

Question: What about the viability, T/C [10] of the same compound?
Answer: 70.5%

Question: And the viability, T/C [11]?
Answer: 13%

Question: What about the viability, T/C [12] of the same compound?
Answer: 10.2%

Question: And the viability, T/C [13]?
Answer: 95.8%

Question: What about the viability, T/C [14] of the same compound?
Answer: 80.9%

Question: What about the viability, T/C [15] of the same compound?
Answer: 81.3%

Question: What about the viability, T/C [16] of the same compound?
Answer: 70.5%

Question: And the viability, T/C [17]?
Answer: 11.1%

Question: And the viability, T/C [18]?
Answer: 9.75%

Question: And the viability, T/C [19]?
Answer: 93.1%

Question: What about the viability, T/C [20] of the same compound?
Answer: 94.6%

Question: And the viability, T/C [21]?
Answer: 81.6%

Question: And the viability, T/C [22]?
Answer: 64.8%

Question: And the viability, T/C [23]?
Answer: 12.2%

Question: What about the viability, T/C [24] of the same compound?
Answer: 9.19%

Question: And the viability, T/C [25]?
Answer: 76.1%

Question: And the viability, T/C [26]?
Answer: 84.7%

Question: And the viability, T/C [27]?
Answer: 83%

Question: And the viability, T/C [28]?
Answer: 64%

Question: What about the viability, T/C [29] of the same compound?
Answer: 12.9%

Question: And the viability, T/C [30]?
Answer: 8.54%

Question: What about the viability, T/C [31] of the same compound?
Answer: 85.2%

Question: What about the viability, T/C [32] of the same compound?
Answer: 84.4%

Question: And the viability, T/C [33]?
Answer: 89.3%

Question: What about the viability, T/C [34] of the same compound?
Answer: 56.3%

Question: What about the viability, T/C [35] of the same compound?
Answer: 14.1%

Question: What about the viability, T/C [36] of the same compound?
Answer: 9.29%

Question: What does the source list for `Cn1ncnc1[C@H]1c2n[nH]c(=O)c3cc(F)cc(c23)N[C@@H]1c1ccc(F)cc1` + COC1C(OC(N)=O)C(O)C(Oc2ccc3c(O)c(NC(=O)c4ccc(O)c(CC=C(C)C)c4)c(=O)oc3c2C)OC1(C)C?
Answer: IC50 (second compound 0.0316 µM): > 100 nM; IC50 (second compound 0.1 µM): > 100 nM; IC50 (second compound 0.316 µM): > 100 nM; IC50 (second compound 1 µM): > 100 nM; IC50 (second compound 3.16 µM): > 100 nM; IC50 (second compound 10 µM): > 100 nM; viability, T/C (second compound 0.0316 µM, first compound 0.000316 µM): 97.8%; viability, T/C (second compound 0.0316 µM, first compound 0.001 µM): 82.9%; viability, T/C (second compound 0.0316 µM, first compound 0.00316 µM): 99.7%; viability, T/C (second compound 0.0316 µM, first compound 0.01 µM): 96.3%; viability, T/C [1]: 74%; viability, T/C [2]: 56.1%; viability, T/C (second compound 0.1 µM, first compound 0.000316 µM): 90.3%; viability, T/C (second compound 0.1 µM, first compound 0.001 µM): 93.4%; viability, T/C (second compound 0.1 µM, first compound 0.00316 µM): 110%; viability, T/C (second compound 0.1 µM, first compound 0.01 µM): 87.2%; viability, T/C [7]: 69.9%; viability, T/C [8]: 56.4%; viability, T/C (second compound 0.316 µM, first compound 0.000316 µM): 91.4%; viability, T/C (second compound 0.316 µM, first compound 0.001 µM): 78.5%; viability, T/C (second compound 0.316 µM, first compound 0.00316 µM): 82.5%; viability, T/C (second compound 0.316 µM, first compound 0.01 µM): 85.4%; viability, T/C [13]: 74%; viability, T/C [14]: 66.2%; viability, T/C (second compound 1 µM, first compound 0.000316 µM): 86.7%; viability, T/C (second compound 1 µM, first compound 0.001 µM): 83.2%; viability, T/C (second compound 1 µM, first compound 0.00316 µM): 85.2%; viability, T/C (second compound 1 µM, first compound 0.01 µM): 92.3%; viability, T/C [19]: 67.6%; viability, T/C [20]: 60.9%; viability, T/C (second compound 3.16 µM, first compound 0.000316 µM): 86.6%; viability, T/C (second compound 3.16 µM, first compound 0.001 µM): 89.3%; viability, T/C (second compound 3.16 µM, first compound 0.00316 µM): 89.5%; viability, T/C (second compound 3.16 µM, first compound 0.01 µM): 78.8%; viability, T/C [25]: 83.3%; viability, T/C [26]: 56.1%; viability, T/C (second compound 10 µM, first compound 0.000316 µM): 86%; viability, T/C (second compound 10 µM, first compound 0.001 µM): 87%; viability, T/C (second compound 10 µM, first compound 0.00316 µM): 89.3%; viability, T/C (second compound 10 µM, first compound 0.01 µM): 76%; viability, T/C [31]: 74%; viability, T/C [32]: 58.1%

Question: What does the source list for `C=CC(=O)N1CCN(c2nc(=O)n(-c3c(C)ccnc3C(C)C)c3nc(-c4c(O)cccc4F)c(F)cc23)C(C)C1` (stereo unspecified) + Nc1ccc(C#CCN(C(=O)Cc2ncc(C(F)(F)F)cc2C(F)(F)F)c2ccc(F)cc2)nn1?
Answer: IC50 (second compound 0.0316 µM): > 10000 nM; IC50 (second compound 0.1 µM): > 10000 nM; IC50 (second compound 0.316 µM): > 10000 nM; IC50 (second compound 1 µM): > 10000 nM; IC50 (second compound 3.16 µM): > 10000 nM; IC50 (second compound 10 µM): > 10000 nM; viability, T/C [1]: 102%; viability, T/C [2]: 91.5%; viability, T/C [3]: 103%; viability, T/C [4]: 94.7%; viability, T/C [5]: 114%; viability, T/C [6]: 96.1%; viability, T/C [7]: 90%; viability, T/C [8]: 89.1%; viability, T/C [9]: 104%; viability, T/C [10]: 98.7%; viability, T/C [11]: 92%; viability, T/C [12]: 91.7%; viability, T/C [13]: 95.4%; viability, T/C [14]: 93.5%; viability, T/C [15]: 90.2%; viability, T/C [16]: 86.4%; viability, T/C [17]: 94.1%; viability, T/C [18]: 100%; viability, T/C [19]: 89.2%; viability, T/C [20]: 85.5%; viability, T/C [21]: 99.6%; viability, T/C [22]: 93%; viability, T/C [23]: 98.8%; viability, T/C [24]: 103%; viability, T/C [25]: 91.9%; viability, T/C [26]: 90.9%; viability, T/C [27]: 101%; viability, T/C [28]: 90.3%; viability, T/C [29]: 95%; viability, T/C [30]: 93.3%; viability, T/C [31]: 88.3%; viability, T/C [32]: 91.4%; viability, T/C [33]: 93.3%; viability, T/C [34]: 91.4%; viability, T/C [35]: 94.9%; viability, T/C [36]: 98.2%
